Assays:
[1] = Reactivity of amino acid analogs with DBCO-NH2 (61), absorption at 310 nm; assay type: physicochemical; settings: 1:1 equivalence; for yield of reaction with compound (61): in six hours; for reaction rate with compound (61): pH 7.4 phosphate buffered saline, compared among analogs
Description: DBCO-NH2 (61) was dissolved in pH 7.4 phosphate buffered saline to yield a 500 µM solution. Amino acid analogs (30), (1), and (2) were dissolved in the same buffer to yield 5 mM clear solutions, and then diluted to a concentration of 500 μM using the same buffer. One hundred microliters of each amino acid analog was mixed with 100 μL of compound (61) and vortexed. The absorption of compound (61) was monitored at 310 nm using a NANODROP 1000 UV Spectrometer. Measurements were obtained at 0, 0.5, 2, 6, and 20 hours. The reduction in the absorption of compound (61) is indicative of its reaction with the amino acid analogs.

Y50TAG site in GFP = experiment: Cell-free (OCFS) incorporation into GFP at amber codon, fluorescence time course; assay type: biochemical
Text: This example describes incorporation of compound (30) into green fluorescent protein. To monitor synthesis of GFP, the DNA encoding turboGFP containing an amber codon (stop codon) before the chromophore was cloned into OCFS expression vector pYD317. The stop codon (TAG) was inserted by overlapping PCR mutagenesis at the nucleotides corresponding to the amino acid tyrosine at the 50th amino acid according to the crystal structure of turboGFP (pdb 2G6X).
[…] OCFS reaction mix was immediately added to microplate for a 30 μL final reaction volume containing 30% S30 extract, 24 μg/mL T7 RNA polymerase, 1 mM L-tyrosine (Sigma, T8566), pre-mix*, 10 μM tRNA, 5 μM pCNFRS D286R, 1 mM compound (30), and 3 nM turboGFP plasmid (Evrogen, Russia, subcloned into a PYD317 vector) in DEPC-treated water (G Biosciences, 786-109). A positive control reaction using turboGFP without the stop codon was used to ensure that the reactions proceeded with rates similar previously observed, while reactions containing turboGFP Y50TAG were also run without tRNA to ensure no fluorescence was detected (negative control) in the absence of the system responsible for incorporation of pAMF. Incorporation of pAMF into GFP achieves relatively high yields of protein in a site-specific manner.

trastuzumab heavy chain = experiment: Cell-free incorporation into IgG at heavy chain amber codon, autoradiography; assay type: biochemical; settings: 1 mM compound (30), TAG at serine position 136 (EU index)
Description: TAG codon was inserted by overlapping PCR mutagenesis at the nucleotides corresponding to the amino acid serine at the position 136 by EU index in CHI domain.
(§1) Cell-free extracts were thawed to room temperature and incubated with 50 μM iodoacetamide for 30 min. Cell-free reactions were run at 30 C for up to 10 h containing 30% (v/v) iodoacetamide-treated extract with 8 mM magnesium glutamate, 10 mM ammonium glutamate, 130 mM potassium glutamate, 35 mM sodium pyruvate, 1.2 mM AMP, 0.86 mM each of GMP, UMP, and CMP, 2 mM amino acids for all 18 amino acids except tyrosine and phenylalanine which were added at 0.5 mM, 4 mM sodium oxalate, 1 mM putrescine, 1.5 mM spermidine, 15 mM potassium phosphate, 100 nM T7 RNAP, 1.3 μM E. coli DsbC, 5 μM yeast PDI, 2 mM oxidized (GSSG) glutathione, 15 μM tRNA, 1 μM tRNA synthetase, and 1 mM compound (30). The concentrations of heavy chain TAG variant plasmid and wild type light chain plasmid were 7.5 μg/mL and 2.5 μg/mL respectively. […]
For non reducing gel, 4 μL of sample, 8 μL of DI H2O and 4 μL of 4×LDS buffer (Invitrogen, Carlsbad, CA) were mixed before being loaded on gel. […] Samples were analyzed by 4˜12% Bis-Tris SDS-PAGE gels (Invitrogen, Carlsbad, CA) according to the manufacturer's recommendations. Gels were dried and analyzed by autoradiography using a Storm 840 PhosphoImager after about 16 hours exposure.

[2] = Reactivity of azido amino acids with DBCO analog (60), loss of DBCO absorbance at 310 nm; assay type: physicochemical; settings: reaction with compound (60); for second-order rate constant: PBS buffer, 25° C., from plot of kobs vs. [Azide]; for rate constant fold higher than compound (50): relative to compound (50)
Description: DBCO analog (60), was dissolved in acetonitrile to a concentration of 60 μM. Amino acid analogs (30), (40), and (50) were serially diluted in PBS buffer in the wells of a 96-well microtiter plate to a volume of 180 μL. 20 μL of DBCO analog stock solution was added to each well and the kinetics of the loss of DBCO to form the addition adduct was monitored at 310 nm by absorbance using a SpectraMax plate reader at 25° C. A schematic of the reaction of compounds (30), (40), and (50) with compound (60) is shown as FIG. 1. The kinetics accurately fit a first order decay with […], where kobs is the pseudo first order rate constant with units of sec^−1 under conditions where [Azide compound]>>[DBCO]. A plot of kobs vs. [Azide] yields the second-order rate constant (units of M^−1 sec^−1) for each amino acid, a measure of the intrinsic chemical reactivity of each amino acid.

human GMCSF = experiment: Cell-free incorporation into GM-CSF at amber codon, autoradiography; assay type: biochemical; settings: 1 mM compound (30), TAG at serine position 6
Description: DNA encoding human GMCSF with amber codon was cloned into expression vector pYD317. The TAG codon was inserted by overlapping PCR mutagenesis at the nucleotides corresponding to the amino acid serine at the position 6.
as §1, with “extracts containing tRNA CUA” for “extracts”, “DsbC,” for “DsbC, 5 μM yeast PDI,”, “glutathione,” for “glutathione, 15 μM tRNA,”, “GMCSF” for “heavy chain”, “was 5 μg/mL.” for “and wild type light chain plasmid were 7.5 μg/mL and 2.5 μg/mL respectively.”
For reducing gel, 4 μL of sample, 1 μL of 1 M DTT, 7 μL of DI H2O and 4 μL of 4×LDS buffer (Invitrogen, Carlsbad, CA) were mixed and heated in hot blot at 70 C for 5 minutes. Samples were analyzed by 4˜12% Bis-Tris SDS-PAGE gels (Invitrogen, Carlsbad, CA) according to the manufacturer's recommendations. Gels were dried and analyzed by autoradiography using a Storm 840 PhosphoImager after about 16 hours exposure.

Row | SMILES | yield of reaction with compound (61) [1] | reaction rate with compound (61) [1] | second-order rate constant [2] [M⁻¹ s⁻¹] | rate constant fold higher than compound (50) [2] | other results
1 | [N-]=[N+]=NCc1ccc(CC(N)C(=O)O)nc1 (stereo not drawn) [compound (1), 2-Amino-3-(5-azidomethyl-pyridin-2-yl)-propionic Acid] | almost quantitative yield | comparable rates | – | – | –
2 | [N-]=[N+]=NCc1ccc(C[C@H](N)C(=O)O)cn1 [compound (2)] | – | two- to four-fold slower | – | – | –
3 | [N-]=[N+]=NCc1ccc(C[C@H](N)C(=O)O)cc1 [compound (30)] | almost quantitative yield | comparable rates | 1.4 | approximately 7 fold | RFU (Y50TAG site in GFP; at 200 minutes): approximately 130,000 RFU; RFU (Y50TAG site in GFP; at 400 minutes): approximately 160,000 RFU; RFU (Y50TAG site in GFP; at 600 minutes): approximately 170,000 RFU; incorporation into IgG by autoradiography (trastuzumab heavy chain): intact full length IgG containing compound (30) was made; incorporation into GMCSF by autoradiography (human GMCSF): intact full length GMCSF containing compound (30) was made
4 | [N-]=[N+]=NCCCC(=O)NCCCC[C@H](N)C(=O)O [compound (40)] | – | – | 1.4 | approximately 7 fold | –
5 | [N-]=[N+]=Nc1ccc(C[C@H](N)C(=O)O)cc1 [compound (50), p-azido-phenylalanine, reference compound] | – | – | 0.2 | – | –
